Assay results from ChEMBL document CHEMBL1821713, “Synthesis and in vitro activity of novel 1,2,4-triazolo[4,3-a]pyrimidine oxazolidinone antibacterial agents. Part II” (Bioorg Med Chem Lett, 2011).
Values after ≈ are worked out from the molar mass of the structure shown.

Legend:
Enterococcus faecalis = experiment: Antibacterial activity against Enterococcus faecalis ATCC 29212 by CLSI method; format: functional
Staphylococcus aureus [1] = experiment: Antibacterial activity against methicillin-resistant Staphylococcus aureus 43300 by CLSI method; format: functional
Staphylococcus aureus [2] = experiment: Antibacterial activity against Staphylococcus aureus ATCC 25923 by CLSI method; format: functional
[3] = tested on: Staphylococcus epidermidis; experiment: Antibacterial activity against Staphylococcus epidermidis ATCC 12228 by CLSI method; format: functional
Staphylococcus aureus [4] = experiment: Antibacterial activity against Staphylococcus aureus ATCC 29213 by CLSI method relative to Linezolid; format: functional
Staphylococcus aureus [5] = experiment: Antibacterial activity against Staphylococcus aureus FDA 209P by CLSI method relative to Linezolid; format: functional
Staphylococcus aureus [6] = experiment: Antibacterial activity against Staphylococcus aureus ATCC 49775 PVL positive by CLSI method relative to Linezolid; format: functional
Staphylococcus aureus [7] = experiment: Antibacterial activity against Staphylococcus aureus ATCC 700699 Mu 50 by CLSI method relative to Linezolid; format: functional
Staphylococcus aureus [8] = experiment: Antibacterial activity against Staphylococcus aureus ATCC 13709 Smith by CLSI method relative to Linezolid; format: functional
[9] = tested on: Staphylococcus epidermidis; experiment: Antibacterial activity against Staphylococcus epidermidis ATCC 14990 by CLSI method relative to Linezolid; format: functional
[10] = tested on: Staphylococcus epidermidis; experiment: Antibacterial activity against Staphylococcus epidermidis ATCC 12228 by CLSI method relative to Linezolid; format: functional
Enterococcus faecium = experiment: Antibacterial activity against Enterococcus faecium 06076VRE by CLSI method relative to Linezolid; format: functional
Streptococcus pneumoniae = experiment: Antibacterial activity against Streptococcus pneumoniae ATCC 49619 by CLSI method relative to Linezolid; format: functional
Streptococcus pyogenes = experiment: Antibacterial activity against Streptococcus pyogenes ATCC 19615 by CLSI method relative to Linezolid; format: functional
CYP1A2 = molecular target: T1, CYP1A2 (Homo sapiens, UniProt P05177); experiment: Inhibition of human recombinant CYP1A2 at 10 uM by fluorimetric analysis; format: ADME
T1 sequence (P05177 whole entry): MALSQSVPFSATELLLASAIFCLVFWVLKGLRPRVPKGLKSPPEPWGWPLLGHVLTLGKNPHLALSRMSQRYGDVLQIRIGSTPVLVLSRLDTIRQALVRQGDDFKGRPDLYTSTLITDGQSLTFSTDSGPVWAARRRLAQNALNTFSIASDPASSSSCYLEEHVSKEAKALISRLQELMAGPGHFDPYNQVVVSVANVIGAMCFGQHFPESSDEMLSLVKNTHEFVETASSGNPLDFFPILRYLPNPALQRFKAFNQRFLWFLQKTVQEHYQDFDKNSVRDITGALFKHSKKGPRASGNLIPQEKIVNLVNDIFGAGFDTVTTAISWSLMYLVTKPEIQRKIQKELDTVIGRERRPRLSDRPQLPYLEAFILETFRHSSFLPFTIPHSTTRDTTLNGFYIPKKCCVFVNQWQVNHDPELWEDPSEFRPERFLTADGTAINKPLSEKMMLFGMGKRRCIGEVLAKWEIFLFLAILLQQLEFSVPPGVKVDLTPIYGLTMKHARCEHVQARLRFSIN

CYP2C9 = CYP2C9 (Homo sapiens, UniProt P11712); experiment: Inhibition of recombinant human cytochrome P450-2C9 at 10 uM by fluorimetric analysis; format: ADME
CYP2C19 = CYP2C19 (Homo sapiens, UniProt P33261); experiment: Inhibition of human recombinant CYP2C19 at 10 uM by fluorimetric analysis; format: ADME
CYP2D6 = CYP2D6 (Homo sapiens, UniProt P10635); experiment: Inhibition of human recombinant CYP2D6 at 10 uM by fluorimetric analysis; format: ADME
CYP3A4 = CYP3A4 (Homo sapiens, UniProt P08684); experiment: Inhibition of human recombinant CYP3A4 at 10 uM by fluorimetric analysis; format: ADME
Chain of CYP3A4 (P08684 whole entry): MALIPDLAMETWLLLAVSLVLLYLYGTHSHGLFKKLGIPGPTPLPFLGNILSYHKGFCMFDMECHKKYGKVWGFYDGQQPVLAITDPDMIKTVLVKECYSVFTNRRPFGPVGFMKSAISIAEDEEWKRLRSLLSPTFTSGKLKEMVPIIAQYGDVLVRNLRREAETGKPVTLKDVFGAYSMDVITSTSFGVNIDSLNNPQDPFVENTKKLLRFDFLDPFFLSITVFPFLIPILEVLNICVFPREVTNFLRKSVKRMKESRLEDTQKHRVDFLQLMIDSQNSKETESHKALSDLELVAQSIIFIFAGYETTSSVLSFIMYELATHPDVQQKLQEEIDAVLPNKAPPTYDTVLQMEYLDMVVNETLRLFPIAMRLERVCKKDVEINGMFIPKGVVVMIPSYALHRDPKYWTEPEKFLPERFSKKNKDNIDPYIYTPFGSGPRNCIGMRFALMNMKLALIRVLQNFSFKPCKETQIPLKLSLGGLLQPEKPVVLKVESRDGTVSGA

Chain of CYP2C19 (P33261 whole entry): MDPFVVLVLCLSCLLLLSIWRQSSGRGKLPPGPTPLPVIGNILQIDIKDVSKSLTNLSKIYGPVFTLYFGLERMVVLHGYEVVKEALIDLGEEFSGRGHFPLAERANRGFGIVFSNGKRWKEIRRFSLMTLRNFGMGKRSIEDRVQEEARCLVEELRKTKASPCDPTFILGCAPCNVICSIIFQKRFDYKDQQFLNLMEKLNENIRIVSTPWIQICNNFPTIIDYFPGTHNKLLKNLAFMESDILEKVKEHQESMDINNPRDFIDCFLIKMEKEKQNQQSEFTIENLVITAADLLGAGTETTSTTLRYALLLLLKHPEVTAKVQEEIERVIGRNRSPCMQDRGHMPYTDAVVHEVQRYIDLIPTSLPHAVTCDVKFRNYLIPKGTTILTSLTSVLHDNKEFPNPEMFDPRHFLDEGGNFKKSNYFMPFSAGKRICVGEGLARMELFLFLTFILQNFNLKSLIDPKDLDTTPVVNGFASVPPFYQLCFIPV
Chain of CYP2D6 (P10635 whole entry): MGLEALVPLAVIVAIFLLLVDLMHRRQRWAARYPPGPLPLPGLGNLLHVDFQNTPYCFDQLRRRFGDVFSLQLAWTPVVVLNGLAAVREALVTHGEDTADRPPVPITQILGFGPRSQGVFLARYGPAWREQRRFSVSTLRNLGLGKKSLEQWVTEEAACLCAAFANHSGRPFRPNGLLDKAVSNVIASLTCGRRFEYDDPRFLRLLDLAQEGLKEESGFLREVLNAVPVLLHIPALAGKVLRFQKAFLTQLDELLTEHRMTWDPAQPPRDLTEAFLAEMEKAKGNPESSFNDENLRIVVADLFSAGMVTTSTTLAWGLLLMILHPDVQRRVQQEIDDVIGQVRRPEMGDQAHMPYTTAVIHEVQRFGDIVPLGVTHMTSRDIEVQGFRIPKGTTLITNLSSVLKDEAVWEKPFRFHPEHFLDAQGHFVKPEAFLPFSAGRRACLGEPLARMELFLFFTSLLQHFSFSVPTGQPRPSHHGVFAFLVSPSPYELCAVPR
Chain of CYP2C9 (P11712 whole entry): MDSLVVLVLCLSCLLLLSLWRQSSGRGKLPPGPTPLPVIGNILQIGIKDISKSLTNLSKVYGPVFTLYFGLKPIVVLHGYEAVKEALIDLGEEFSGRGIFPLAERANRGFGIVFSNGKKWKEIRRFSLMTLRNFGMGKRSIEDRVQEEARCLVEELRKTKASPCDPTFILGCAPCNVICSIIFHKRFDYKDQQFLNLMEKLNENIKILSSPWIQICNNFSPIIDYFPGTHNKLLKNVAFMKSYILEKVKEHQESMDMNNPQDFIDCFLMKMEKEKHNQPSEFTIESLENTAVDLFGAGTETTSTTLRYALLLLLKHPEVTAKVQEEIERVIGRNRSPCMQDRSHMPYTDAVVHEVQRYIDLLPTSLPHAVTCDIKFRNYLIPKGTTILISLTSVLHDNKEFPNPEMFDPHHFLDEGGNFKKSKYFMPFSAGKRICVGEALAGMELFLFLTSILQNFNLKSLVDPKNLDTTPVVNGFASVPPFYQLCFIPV

Row | SMILES | MIC (Enterococcus faecalis) | MIC (Staphylococcus aureus [1]) | MIC (Staphylococcus aureus [2]) | MIC [3] | further results
1 | CC(=O)NC[C@H]1CN(c2ccc(-c3ccc(-c4nnc5ncccn45)c(F)c3)c(F)c2)C(=O)O1 | 0.5 µg/mL (≈ 1.08 µM) | 0.125 µg/mL (≈ 0.269 µM) | 0.5 µg/mL (≈ 1.08 µM) | 0.5 µg/mL (≈ 1.08 µM) | –
2 | CC(=O)NC[C@H]1CN(c2ccc(-c3ccc(-c4nnc5ncccn45)nc3)c(F)c2)C(=O)O1 | 0.5 µg/mL (≈ 1.12 µM) | 0.125 µg/mL (≈ 0.279 µM) | 0.25 µg/mL (≈ 0.559 µM) | 0.5 µg/mL (≈ 1.12 µM) | –
3 | CC(=O)NC[C@H]1CN(c2ccc(-c3cccc(-c4nnc5ncccn45)c3)c(F)c2)C(=O)O1 | 4 µg/mL (≈ 8.96 µM) | 1 µg/mL (≈ 2.24 µM) | 4 µg/mL (≈ 8.96 µM) | 4 µg/mL (≈ 8.96 µM) | –
4 | COc1ccc(-c2ccc(N3C[C@H](CNC(C)=O)OC3=O)cc2F)cc1-c1nnc2ncccn12 | 16 µg/mL (≈ 33.6 µM) | 8 µg/mL (≈ 16.8 µM) | 16 µg/mL (≈ 33.6 µM) | > 16 µg/mL | –
5 | CC(=O)NC[C@H]1CN(c2ccc(-c3csc(-c4nnc5ncccn45)c3)c(F)c2)C(=O)O1 | 0.06 µg/mL (≈ 0.133 µM) | 0.125 µg/mL (≈ 0.276 µM) | 0.125 µg/mL (≈ 0.276 µM) | 0.25 µg/mL (≈ 0.553 µM) | fold change (FC) (Staphylococcus aureus [4]): 4; fold change (FC) (Staphylococcus aureus [5]): 4; fold change (FC) (Staphylococcus aureus [6]): 4; fold change (FC) (Staphylococcus aureus [7]): 4; fold change (FC) (Staphylococcus aureus [8]): 4; fold change (FC) [9]: 4; fold change (FC) [10]: 4; fold change (FC) (Enterococcus faecium): 4; fold change (FC) (Streptococcus pneumoniae): 4; fold change (FC) (Streptococcus pyogenes): 4; inhibition at 10 µM (CYP1A2): 4.3%; inhibition at 10 µM (CYP2C9): 40.9%; inhibition at 10 µM (CYP2C19): 36.2%; inhibition at 10 µM (CYP2D6): 5.6%; inhibition at 10 µM (CYP3A4): 37.7%
6 | CC(=O)NC[C@H]1CN(c2cccc(F)c2)C(=O)O1 | > 16 µg/mL | 16 µg/mL (≈ 63.4 µM) | > 16 µg/mL | 16 µg/mL (≈ 63.4 µM) | –
7 | CC(=O)NC[C@H]1CN(c2ccc(N3CCOCC3)c(F)c2)C(=O)O1 [LINEZOLID] | – | – | – | 1 µg/mL (≈ 2.96 µM) | –
